Test results taken from patent EP0326640B1, “(1R,5S,6S)-2-substituted thio-6 (R)-1-hydroxyethyl -1-methyl-carbapenem - carboxylic acid derivatives” (LEDERLE (JAPAN) LTD., priority 1987, dated 1989).
In brackets after ≈: the same amount, converted by molar mass.

Assays:
Format in all cases: cell-based
[1] = tested on: Klebsiella oxytoca GN 10650; assay: Antibacterial activity against clinically isolated β-lactamase (cephalosporinase) producing strains (MIC); settings: Klebsiella oxytoca, GN10650, Klebsiella oxytoca GN 10650; cephalosporinase producing strain, SDA, 18 to 20 hours; read-out: MIC
Protocol: (§1) The antibacterial activities against clinically isolated β-lactamase producing strains were tested by the agar plate dilution method in accordance with the standard method of The Japanese Chemotherapy Society [Chemotherapy, Vol. 29, 76-79 (1981)]. A solution of a cephalosporinase producing strain stored by Episome Research Institute, prepared by incubating the strain in a sensitivity test broth (STB; product of Nissui K. K.) for 18 hours, was diluted with a fresh STB solution so that the solution contained 10⁶ cells per milliliter. The diluted solution was then inoculated as spots in a microplanter on a sensitivity disk agar-N (SDA; product of Nissui K. K.) containing a test compound. The disk agar was then incubated for 18 to 20 hours. The minimum inhibitory concentration was determined as a minimum concentration in which the test microorganism no longer grew after a 18 to 20-hour incubation.

Serratia marcescens L-82 = assay: as above; settings: L82, cephalosporinase producing strain, SDA, 18 to 20 hours, read-out: MIC
Protocol: as §1

[2] = tested on: Pseudomonas aeruginosa GN 10362; assay: as above; settings: GN10362, cephalosporinase producing strain, SDA, 18 to 20 hours, read-out: MIC
Protocol: as §1

[3] = tested on: Pseudomonas aeruginosa GN 10367; assay: as above; settings: GN10367; Pseudomonas aeruginosa GN 10367; cephalosporinase producing strain, SDA, 18 to 20 hours; read-out: MIC
Protocol: as §1

Serratia marcescens L-65 = assay: as above; settings: Serratia marcescens, L65, Serratia marcescens L-65; cephalosporinase producing strain, SDA, 18 to 20 hours; read-out: MIC
Protocol: as §1

Proteus vulgaris GN 7919 = assay: as above; settings: Proteus vulgaris, GN7919, Proteus vulgaris GN 7919; cephalosporinase producing strain, SDA, 18 to 20 hours; read-out: MIC
Protocol: as §1

[4] = tested on: Citrobactor freundii GN 346; assay: as above; settings: cephalosporinase producing strain, SDA, 18 to 20 hours
Protocol: as §1

[5] = tested on: Serratia marcescens GN 10857; assay: as above; settings: Serratia marcescens, GN10857, Serratia marcescens GN 10857; cephalosporinase producing strain, SDA, 18 to 20 hours; read-out: MIC
Protocol: as §1

[6] = tested on: Pseudomonas cepacia GN 11164; assay: as above; settings: Burkholderia cepacia, GN11164, cephalosporinase producing strain, SDA, 18 to 20 hours, read-out: MIC
Protocol: as §1

[7] = tested on: Pseudomonas aeruginosa GN 918; assay: as above; settings: GN918; Pseudomonas aeruginosa GN 918; cephalosporinase producing strain, SDA, 18 to 20 hours; read-out: MIC
Protocol: as §1

[8] = tested on: Citrobactor freundii GN 7391; assay: as above; settings: cephalosporinase producing strain, SDA, 18 to 20 hours
Protocol: as §1

Proteus vulgaris GN 4413 = assay: as above; settings: Proteus vulgaris, GN4413, Proteus vulgaris GN 4413; cephalosporinase producing strain, SDA, 18 to 20 hours; read-out: MIC
Protocol: as §1

[9] = tested on: Serratia marcescens IAM1184; assay: Antibacterial test, agar plate dilution method (MIC), standard strains; settings: Serratia marcescens, IAM1184, 18 h, MH agar, 37°C, read-out: MIC
Protocol: (§2) The antibacterial activities were tested by an agar plate dilution method in accordance with the standard method of The Japanese Chemotherapy Society [Chemotherapy, Vol. 29, 76-79 (1981)].
(§3) A Mueller-Hinton (MH) agar liquid medium of a test microorganism was cultured overnight at 37°C and the resultant culture medium was diluted with a buffered saline gelatin (BSG) solution to contain approximately 10⁶ cells of the test microorganisms per milliliter, and then the diluted solution was inoculated with a microplanter at the rate of approximately 5 microliters on a MH agar medium containing a test compound. This medium was then incubated at 37°C for 18 hours. The minimum inhibitory concentration (MIC) is determined as a minimum concentration in which no test microorganism could grow. It is noted here that the test organisms used were all standard strains.

[10] = tested on: Pseudomanas aeruginosa NCTC 10940; assay: as above; settings: 18 h, MH agar, 37°C, read-out: MIC
Protocol: as §2, §3

[11] = tested on: Morganella morganii IFO3848; assay: as above; settings: Morganella morganii, IFO3848, 18 h, MH agar, 37°C, read-out: MIC
Protocol: as §2, §3

[12] = tested on: Salmonella enteritidis G14; assay: as above; settings: Salmonella enterica, MH agar, 37°C, 18 hours, read-out: MIC
Protocol: as §2, §3

[13] = tested on: Salmonella schottmuelleri 8006; assay: as above; settings: MH agar, 37°C, 18 hours, read-out: MIC
Protocol: as §2, §3

Salmonella typhi 901 = assay: as above; settings: Salmonella enterica, TYPHI, 18 h, MH agar, 37°C
Protocol: as §2, §3

Proteus vulgaris OX-19 = assay: as above; settings: OX19; Proteus vulgaris OX-19; MH agar, 37°C, 18 hours; read-out: MIC
Protocol: as §2, §3

Proteus vulgaris HX-19 = assay: as above; settings: HX19; Proteus vulgaris HX-19; MH agar, 37°C, 18 hours; read-out: MIC
Protocol: as §2, §3

[14] = tested on: Pseudomonas aeruginosa IFO 3445; assay: as above; settings: IFO3445, MH agar, 37°C, 18 hours, read-out: MIC
Protocol: as §2, §3

[15] = tested on: Providencia rettgeri IFO 3850; assay: as above; settings: Providencia rettgeri, IFO3850, 18 h, MH agar, 37°C, read-out: MIC
Protocol: as §2, §3

[16] = tested on: Proteus mirabilis IFO3849; assay: as above; settings: Proteus mirabilis, IFO3849, 18 h, Proteus mirabilis IFO3849; MH agar, 37°C, 18 hours; read-out: MIC
Protocol: as §2, §3

[17] = tested on: Salmonella paratyphi 1015; assay: as above; settings: Salmonella enterica, MH agar, 37°C, 18 hours, read-out: MIC
Protocol: as §2, §3

Cc1nnc(SCC2=C(C(=O)O)N3C(=O)[C@@H](NC(=O)Cn4cnnn4)[C@H]3SC2)s1 [CEZ, cefazolin]
MIC [1]: 0.2 µg/mL (≈ 0.44 µM)
MIC (Serratia marcescens L-82): 0.39 µg/mL (≈ 0.858 µM)
MIC [2]: 3.13 µg/mL (≈ 6.89 µM)
MIC [3]: 3.13 µg/mL (≈ 6.89 µM)
MIC (Serratia marcescens L-65): 0.2 µg/mL (≈ 0.44 µM)
MIC (Proteus vulgaris GN 7919): 3.13 µg/mL (≈ 6.89 µM)
MIC [4]: 25 µg/mL (≈ 55 µM)
MIC [5]: 0.78 µg/mL (≈ 1.72 µM)
MIC [6]: 0.78 µg/mL (≈ 1.72 µM)
MIC [7]: 6.25 µg/mL (≈ 13.8 µM)
MIC [8]: >100 µg/mL
MIC (Proteus vulgaris GN 4413): 0.2 µg/mL (≈ 0.44 µM)
MIC [9]: > 100 µg/mL
MIC [10]: > 100 µg/mL
MIC [11]: 25 µg/mL (≈ 55 µM)
MIC [12]: 0.78 µg/mL (≈ 1.72 µM)
MIC [13]: 0.78 µg/mL (≈ 1.72 µM)
MIC (Salmonella typhi 901): 0.78 µg/mL (≈ 1.72 µM)
MIC (Proteus vulgaris OX-19): 6.25 µg/mL (≈ 13.8 µM)
MIC (Proteus vulgaris HX-19): 6.25 µg/mL (≈ 13.8 µM)
MIC [14]: > 100 µg/mL
MIC [15]: 12.5 µg/mL (≈ 27.5 µM)
MIC [16]: 6.25 µg/mL (≈ 13.8 µM)
MIC [17]: 1.56 µg/mL (≈ 3.43 µM)
